Results from US20100119595A1, “Monounsaturated fatty acids and perhydrocyclopentanophenanthrene nucleus combination molecules, and their precursors, and the use of all of these as weight-loss agents” (priority 2001, published 2010).

Legend:
[1] = Human study of 2 hydroxyestrone oleate (Example 11); assay type: in vivo; conditions: humans, oral capsule, 0.75 or 0.375 micromoles/kg
Experimental: In this random, double-blind, placebo controlled study, subjects are selected to one of three groups and take a capsule orally every morning containing one of the following: a) sunflower oil (placebo), b) 2 hydroxyestrone oleate dissolved in sunflower oil at a dose of 0.75 micromoles/kg, or c) 2 hydroxyestrone oleate dissolved in sunflower oil at a dose of 0.375 micromoles/kg. […]
Different tests are performed at least five different times during each study, namely at the screening of potential participants, at the beginning of the study, weekly during the trials, at the end of the first 4 week period and at the end of the second 4 week treatment period. • 1) SCREENING: Subjects are screened to exclude hypothyroidism, pregnancy, and heart disease. […] Subjects selected to participate in the studies have the following initial measurements: WEIGHT, WAIST to HIP RATIO, HEIGHT, BMI (calculated), BODY FAT % & TOTAL BODY FAT (via bioelectrical impedance method). […]
Ad libitum diets are followed, and food intake and appetite are assessed daily by the patient with an appropriate questionnaire and booklet. […]

[2] = system: MCF-7 human breast cancer cell line; experiment: MCF-7 human breast cancer cell line test; assay type: cell-based; conditions: MCF-7 human breast cancer cells
Source text: The practical use of any compound given to humans for the treatment of obesity require, of course, that the compound not only be effective, but able to pass the FDA requirements and be approved as a drug suitable for humans. […] One test used to determine reactivity with human breast cancer cells is the “MCF-7 human breast cancer cell line test”. The lower the concentration of drug required to produce agonist activity, the more potential there is for problems with cancer causing &/or promotion in humans A comfortable level in the pharmaceutical industry would be a reactivity in the micromolar range. In the case of oleyl estrone, agonist activity begins at […]; with estrone eicosenoate, agonist activity begins at a ten times greater concentration of 1.0 nanomolar. This low concentration of agonist activity mitigates the possibility that these compounds would gain FDA approval for either drug.

Compound	appetite [1]	weight loss, loss of body fat, and/or decrease of body fat% [1]	concentration at which agonist activity begins [2] [nM]
CCCCCCCC/C=C\CCCCCCCC(=O)Oc1cc2c(cc1O)[C@H]1CC[C@]3(C)C(=O)CC[C@H]3[C@@H]1CC2 [2HOE, 2 hydroxyestrone oleate]	reduces appetite	produces weight loss	–
CCCCCCCC/C=C\CCCCCCCCCC(=O)Oc1ccc2c(c1)CC[C@@H]1[C@@H]2CC[C@]2(C)C(=O)CC[C@@H]12 [EE, estrone eicosenoate]	–	–	1.0
